Experimental data as given in the NIST ThermoML archive (doi:10.1016/j.jct.2006.07.017).

Experiment: xn = mol fraction of the nth substance listed
Conditions: 101 kPa, Liquid

Cc1cccc(C)c1 [1,3-dimethylbenzene] + CN(C)C=O
Conditions	mass density [kg/m3]
293.15 K, x1 = 0.0541	942.31
293.15 K, x1 = 0.1151	935.54
293.15 K, x1 = 0.1752	929.18
293.15 K, x1 = 0.2332	923.31
293.15 K, x1 = 0.3021	916.67
293.15 K, x1 = 0.3661	910.82
293.15 K, x1 = 0.4341	904.88
293.15 K, x1 = 0.4984	899.53
293.15 K, x1 = 0.5624	894.44
293.15 K, x1 = 0.6165	890.3
293.15 K, x1 = 0.6751	885.98
293.15 K, x1 = 0.7315	881.96
293.15 K, x1 = 0.8085	876.67
293.15 K, x1 = 0.8758	872.21
293.15 K, x1 = 0.9425	867.93
303.15 K, x1 = 0.0625	932.16
303.15 K, x1 = 0.1251	925.21
303.15 K, x1 = 0.1852	918.87
303.15 K, x1 = 0.2515	912.21
303.15 K, x1 = 0.3251	905.23
303.15 K, x1 = 0.3895	899.45
303.15 K, x1 = 0.4517	894.13
303.15 K, x1 = 0.5214	888.45
303.15 K, x1 = 0.5865	883.4
303.15 K, x1 = 0.6485	878.8
303.15 K, x1 = 0.7125	874.25
303.15 K, x1 = 0.7885	869.05
303.15 K, x1 = 0.8458	865.29
303.15 K, x1 = 0.9012	861.75
303.15 K, x1 = 0.9666	857.68
313.15 K, x1 = 0.0569	923.43
313.15 K, x1 = 0.1125	917.21
313.15 K, x1 = 0.1812	909.9
313.15 K, x1 = 0.2554	902.46
313.15 K, x1 = 0.3251	895.89
313.15 K, x1 = 0.4023	889.03
313.15 K, x1 = 0.4785	882.65
313.15 K, x1 = 0.5445	877.43
313.15 K, x1 = 0.6054	872.82
313.15 K, x1 = 0.6695	868.19
313.15 K, x1 = 0.7254	864.3
313.15 K, x1 = 0.7812	860.56
313.15 K, x1 = 0.8452	856.41
313.15 K, x1 = 0.9032	852.77
313.15 K, x1 = 0.9577	849.43
323.15 K, x1 = 0.0482	914.86
323.15 K, x1 = 0.1065	908.29
323.15 K, x1 = 0.1684	901.67
323.15 K, x1 = 0.2341	895.02
323.15 K, x1 = 0.3051	888.24
323.15 K, x1 = 0.3659	882.75
323.15 K, x1 = 0.4252	877.65
